“Also recorded” adds a separate entry of the source.
Key:
human HDAC1 (hHDAC1) = biological target: T1, human HDAC1 (hHDAC1) (Homo sapiens, UniProt Q13547); test: In vitro human HDAC1 assay (ZMAL substrate); type: biochemical
T1 construct: purchased BPS Bioscience Inc. 50051
Procedure: OptiPlate-96 black microplates (Perkin Elmer Inc., Waltham, MA, USA) were used with an assay volume of 50 µL. […] After an incubation time of 90 min, 50 µL of 0.4 mg/mL trypsin in trypsin buffer (50 mM Tris-HCl, pH 8.0, and 100 mM NaCl) was added, followed by further incubation at 37 °C for 30 min.

P. falciparum Dd2 R539T = test: In vitro P. falciparum growth inhibition assay (HRP2), Dd2 R539T; type: cell-based; settings: Plasmodium falciparum, DD2, 72 h, read-out: PfDd2 R539T IC50
Procedure: Antiplasmodial activity of DHA–HDACi hybrids was evaluated against the asexual stages of the laboratory P. falciparum strains (3D7, chloroquine-sensitive strain, and Dd2, chloroquine-resistant strain, and Dd2 R539T (MRA-1255), provided by BEI Resources carrying a kelch13-mutation that conveys partial artemisinin resistance), using the histidine-rich protein 2 (HRP2) assay, as previously described. In brief: 96-well plates were precoated with the tested compounds in a three-fold serial dilution before ring-stage parasites were added in complete culture medium at a hematocrit of 1.5% and a parasitaemia of 0.05%. After three days of incubation at 37 °C, 5% CO2 and 5% O2 plates were frozen until analyzed by HRP2-ELISA. All compounds were evaluated in duplicate in at least two independent experiments. The IC50 was determined by nonlinear regression analysis of log concentration-response curves using the drc-package v3.0.1 [40] of R v4.0.5..

K562 cells = test: CellTiter-Glo cell viability assay, K562; type: cell-based, human; settings: for IC50: Homo sapiens, K562, CML, 72 h, CellTiter-Glo, n = 3; for Selectivity index range healthy fibroblasts vs K562: SI = (healthy fibroblast IC50)/(leukemia cell line IC50), range over two fibroblasts
Procedure: (§1) Healthy individually-derived fibroblasts were cultured in DMEM supplemented with 10% FCS. Regular cell line authentication was performed short tandem repeat (STR) analysis (DNA fingerprinting), followed by comparison with the original DSMZ cell line database.
(§2) Cell viability assay was performed with leukemic cell lines after 72 h incubation with the respective inhibitors using ATP-based CellTiter-Glo luminescent assay (Promega, Madison, WI, USA).

MOLM13 cells = test: CellTiter-Glo cell viability assay, MOLM13; type: cell-based, human; settings: for IC50: Homo sapiens, MOLM-13, AML, 72 h, CellTiter-Glo, n = 3; for Selectivity index range healthy fibroblasts vs MOLM13: SI = (healthy fibroblast IC50)/(leukemia cell line IC50), range over two fibroblasts
Procedure: as §1, §2

Healthy Fibroblast 2 = test: Cytotoxicity against healthy fibroblast 2; type: cell-based; settings: Homo sapiens, healthy individually-derived fibroblasts
Procedure: as §1, §2

[1] = tested on: artemisinin-resistant P. falciparum Dd2 R539T; test: Ring-stage survival assay (0–3 h), Dd2 R539T; type: cell-based; settings: 700 nM, 6 h pulse; relative to DMSO control; compared with DHA
Procedure: (§3) The effect of DHA–HDACi hybrids on artemisinin-resistant asexual stages of P. falciparum was assessed using the ring-stage survival assay as previously described with minor modifications. Briefly, mature schizonts of the artemisinin-sensitive strain Dd2 and the partial artemisinin-resistant strain Dd2 R539Twere isolated using magnetic column separation. The schizonts were then put with 10 mL complete medium and 200 µL 0^+ erythrocytes in a T-25 cell culture flask and incubated for exactly 3 h (37 °C, 5% O2, and 5% CO2). Next, parasites were synchronized with 5% (w/v) D-sorbitol solution yielding a culture containing only newly-invaded (0–3 h) ring-stage parasites.
(§4) Ring-stage parasites were added at 2% hematocrit and 0.5% parasitemia to a 48-well plate precoated with complete medium containing either DHA (Sigma-Aldrich) (positive control) or the tested DHA–HDACi hybrids at a final concentration of 700 nM or DMSO (negative control). […] Parasitemia was assessed by Giemsa-stained thin blood smears by two independent readers (10,000 erythrocytes per slide). If the results were discordant by more than 50%, a third independent read was conducted. The survival was calculated as the percentage of treated versus the untreated controls (DMSO). […] Means and standard deviations were calculated using Microsoft Excel. […]

[2] = tested on: five leukemia cell lines (K562, HL60, NALM6, HPBALL, MOLM13); test: CellTiter-Glo cell viability assay, panel of five leukemia cell lines; type: cell-based, human; settings: for antiproliferative activity compared to DHA: number of the five leukemia cell lines in which DHA is exceeded
Procedure: as §1, §2

[3] = tested on: acetylation of α-tubulin (marker of HDAC6 inhibition); test: Immunoblotting, acetyl-α-tubulin in K562 cells; type: cell-based, human; settings: 0.4 µM, 24 h
Procedure: (§5) K562 cells were treated with the indicated concentration of the compounds or vehicle control (DMSO) for 24 h. The recovered cell pellets were lysed with RIPA buffer (50 mM Tris-HCl pH 8.0, 1% Triton X-100, 0.5% sodium deoxycholate, 0.1% SDS, 150 mM sodium chloride, and 2 mM EDTA), supplemented with protease and phosphatase inhibitors (Thermofischer Scientific, Waltham, MA, USA). An equal amount of total protein (20 µg) was resolved by SDS-PAGE and followed by transfer on nitrocellulose membrane (Sigma-Aldrich). PageRuler prestained protein ladder, 10 kDa to 180 kDa (Thermofisher Scientific, Waltham, MA, USA) was used as a protein molecular weight marker.

[4] = tested on: acetylation of histone H3 (marker of HDAC1 inhibition); test: Immunoblotting, acetyl-histone H3 in K562 cells; type: cell-based, human; settings: 0.4 µM, 24 h
Procedure: as §5

[5] = tested on: artemisinin-sensitive P. falciparum Dd2; test: Ring-stage survival assay (0–3 h), Dd2; type: cell-based; settings: 700 nM, 6 h pulse; relative to DMSO control
Procedure: as §3, §4

T1 sequence (Q13547 whole entry): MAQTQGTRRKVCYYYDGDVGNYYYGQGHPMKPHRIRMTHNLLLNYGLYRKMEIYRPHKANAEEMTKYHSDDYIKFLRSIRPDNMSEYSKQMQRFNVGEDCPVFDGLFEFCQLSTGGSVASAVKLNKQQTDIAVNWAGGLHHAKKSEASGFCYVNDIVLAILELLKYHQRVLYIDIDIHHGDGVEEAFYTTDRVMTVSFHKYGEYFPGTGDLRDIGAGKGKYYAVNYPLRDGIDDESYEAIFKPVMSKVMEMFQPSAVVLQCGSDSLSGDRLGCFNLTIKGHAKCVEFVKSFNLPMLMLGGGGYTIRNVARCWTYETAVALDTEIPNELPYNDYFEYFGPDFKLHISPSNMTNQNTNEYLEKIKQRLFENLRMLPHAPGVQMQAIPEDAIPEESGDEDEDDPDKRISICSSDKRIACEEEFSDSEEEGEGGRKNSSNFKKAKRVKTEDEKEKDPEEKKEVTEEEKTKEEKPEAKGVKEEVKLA

Row | SMILES | IC50 (human HDAC1 (hHDAC1)) | IC50 (P. falciparum Dd2 R539T) | IC50 (K562 cells) | Selectivity index range healthy fibroblasts vs K562 (K562 cells) | IC50 (MOLM13 cells) | Selectivity index range healthy fibroblasts vs MOLM13 (MOLM13 cells) | IC50 (Healthy Fibroblast 2) | survival of artemisinin-resistant Dd2 R539T parasites in ring-stage survival assay [1] | antiproliferative activity compared to DHA [2] | acetylation of α-tubulin (immunoblot) [3] | acetylation of histone H3 (immunoblot) [4] | IC50 ([2]; Homo sapiens, range over K562, HL60, NALM6, HPBALL, MOLM13, read-out: IC50 values across the five leukemia cell lines) | selectivity indices (SI) fibroblasts over leukemia cells, highest ([2]; highest SI across leukemia cell lines and fibroblasts) | survival of artemisinin-sensitive Dd2 parasites in ring-stage survival assay [5]
1 | C[C@H]1[C@@H](SCc2ccc(C(=O)NO)cc2)O[C@@H]2O[C@@]3(C)CC[C@H]4[C@H](C)CC[C@@H]1[C@@]24OO3 [(α)-7c, N-Hydroxy-4-((((3R,5aS,6R,8aS,9R,10R,12S,12aR)-3,6,9-trimethyldecahydro-12H-3,12-epoxy[1,2]dioxepino[4,3-i]isochromen-10-yl)thio)methyl)benzamide] | 2000 ± 200 nM | 3.3 ± 2.2 nM | 620 ± 60 nM | 12-21 | 330 ± 110 nM | 23-39 | 7410 ± 1400 nM | significantly more active than DHA alone; also recorded: lowest survival | all five cell lines |  |  |  |  | 
2 | C[C@H]1[C@H](SCc2ccc(C(=O)NO)cc2)O[C@@H]2O[C@@]3(C)CC[C@H]4[C@H](C)CC[C@@H]1[C@@]24OO3 [(β)-7c, N-Hydroxy-4-((((3R,5aS,6R,8aS,9R,10S,12S,12aR)-3,6,9-trimethyldecahydro-12H-3,12-epoxy[1,2]dioxepino[4,3-i]isochromen-10-yl)thio)methyl)benzamide] | 2790 ± 140 nM | 2.6 ± 2 nM | 410 ± 110 nM | 36-43 | 380 ± 70 nM | 39-47 | 17800 ± 6040 nM |  | outperforming DHA in four out of five | induced acetylation of α-tubulin | did not induce acetylation of histone H3 |  |  | 
3 | C[C@@H]1CC[C@H]2[C@@H](C)C(OCc3ccc(/C=C/C(=O)NO)cc3)O[C@@H]3O[C@@]4(C)CC[C@@H]1[C@]32OO4 (stereo partly drawn) [Compound 7a, (E)-N-Hydroxy-3-(4-((((3R,5aS,6R,8aS,9R,12R,12aR)-3,6,9-trimethyldecahydro-12H-3,12-epoxy[1,2]dioxepino[4,3-i]isochromen-10-yl)oxy)methyl)phenyl)acrylamide] | 546 ± 0.3 nM | 1.9 ± 1.4 nM | 310 ± 60 nM | 21-42 | 220 ± 40 nM | 29-60 | 6340 ± 790 nM |  | all five cell lines |  |  | 150 to 1360 nM | up to 87 | 
4 | C[C@H]1[C@@H](O)O[C@@H]2O[C@@]3(C)CC[C@H]4[C@H](C)CC[C@@H]1[C@@]24OO3 [DHA, dihydroartemisinin] | > 10000 nM |  | 2400 ± 660 nM |  | 690 ± 170 nM |  | > 25000 nM |  |  | affected the acetylation level neither of α-tubulin nor of histone H3 | affected the acetylation level neither of α-tubulin nor of histone H3 |  |  | ≤ 0.25%
